Assays:
Assay in all cases: relative viability (nuclei count vs DMSO), 5 days (fraction); higher = more cells survive
Bleomycin + Luminespib = compound: CC1=C(N=C(N=C1N)[C@H](CC(=O)N)NC[C@@H](C(=O)N)N)C(=O)N[C@@H]([C@H](C2=CN=CN2)OC3C(C(C(C(O3)CO)O)O)OC4C(C(C(C(O4)CO)O)OC(=O)N)O)C(=O)N[C@H](C)[C@H]([C@H](C)C(=O)N[C@@H]([C@@H](C)O)C(=O)NCCC5=NC(=CS5)C6=NC(=CS6)C(=O)NCCC[S+](C)C)O [Bleomycin] + CCNC(=O)c1noc(-c2cc(C(C)C)c(O)cc2O)c1-c1ccc(CN2CCOCC2)cc1 [Luminespib] (partner 0.01 µM); details: main component drawn
Outline: (§1)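 Relative viability was taken as the ratio of nuclei in treated wells to nuclei in vehicle wells. Lung cancer cell lines in 1536-well plates received compounds by pin tool one day after seeding, either one drug alone or a fixed anchor-drug dose plus five library-drug doses (not always all listed) in √10 steps. Nuclei were counted on 4× images after 5 days of treatment, and values are medians of duplicate plates.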

Bleomycin + Pictilisib = compound: CC1=C(N=C(N=C1N)[C@H](CC(=O)N)NC[C@@H](C(=O)N)N)C(=O)N[C@@H]([C@H](C2=CN=CN2)OC3C(C(C(C(O3)CO)O)O)OC4C(C(C(C(O4)CO)O)OC(=O)N)O)C(=O)N[C@H](C)[C@H]([C@H](C)C(=O)N[C@@H]([C@@H](C)O)C(=O)NCCC5=NC(=CS5)C6=NC(=CS6)C(=O)NCCC[S+](C)C)O [Bleomycin] + CS(=O)(=O)N1CCN(Cc2cc3nc(-c4cccc5[nH]ncc45)nc(N4CCOCC4)c3s2)CC1 [Pictilisib] (partner 1 µM); details: main component drawn
Outline: as §1

Etoposide + OSI-027 = compound: COc1cc([C@@H]2c3cc4c(cc3[C@@H](O[C@@H]3O[C@@H]5CO[C@@H](C)O[C@H]5[C@H](O)[C@H]3O)[C@H]3COC(=O)[C@H]23)OCO4)cc(OC)c1O [Etoposide] + COc1cccc2cc(-c3nc([C@H]4CC[C@H](C(=O)O)CC4)n4ncnc(N)c34)[nH]c12 [OSI-027] (partner 0.5 µM)
Outline: as §1

Etoposide + AZD7762 = compound: COc1cc([C@@H]2c3cc4c(cc3[C@@H](O[C@@H]3O[C@@H]5CO[C@@H](C)O[C@H]5[C@H](O)[C@H]3O)[C@H]3COC(=O)[C@H]23)OCO4)cc(OC)c1O [Etoposide] + NC(=O)Nc1cc(-c2cccc(F)c2)sc1C(=O)N[C@H]1CCCNC1 [AZD7762] (partner 0.2 µM)
Outline: as §1

Cell Line | relative viability (Bleomycin + Luminespib; first compound 0.01 µM) | relative viability (Bleomycin + Luminespib; first compound 0.03162 µM) | relative viability (Bleomycin + Luminespib; first compound 0.1 µM) | relative viability (Bleomycin + Luminespib; first compound 0.3162 µM) | relative viability (Bleomycin + Luminespib; first compound 1 µM) | relative viability (Bleomycin + Pictilisib; first compound 0.01 µM) | relative viability (Bleomycin + Pictilisib; first compound 0.03162 µM) | relative viability (Bleomycin + Pictilisib; first compound 0.1 µM) | relative viability (Bleomycin + Pictilisib; first compound 0.3162 µM) | relative viability (Bleomycin + Pictilisib; first compound 1 µM) | relative viability (Etoposide + OSI-027; first compound 0.01 µM) | relative viability (Etoposide + OSI-027; first compound 0.03162 µM) | relative viability (Etoposide + OSI-027; first compound 0.1 µM) | relative viability (Etoposide + OSI-027; first compound 0.3162 µM) | relative viability (Etoposide + OSI-027; first compound 1 µM) | relative viability (Etoposide + AZD7762; first compound 0.01 µM) | relative viability (Etoposide + AZD7762; first compound 0.03162 µM) | relative viability (Etoposide + AZD7762; first compound 0.1 µM) | relative viability (Etoposide + AZD7762; first compound 0.3162 µM) | relative viability (Etoposide + AZD7762; first compound 1 µM)
HCC-15 | 0.183 | 0.231 | 0.203 | 0.164 | 0.144 | 0.685 | 0.693 | 0.627 | 0.199 | 0.219 | 0.785 | 0.718 | 0.563 | 0.291 | 0.144 | 1.2 | 1.34 | 1.32 | 1.01 | 0.777
HCC-44 | 0.39 | 0.277 | 0.261 | 0.187 | 0.239 | 0.385 | 0.477 | 0.271 | 0.211 | 0.246 | 0.625 | 0.524 | 0.52 | 0.505 | 0.294 | 1.02 | 1.05 | 1.15 | 1.01 | 0.95
HCC-827 | 0.525 | 0.576 | 0.377 | 0.39 | 0.233 | 0.921 | 0.787 | 0.916 | 0.512 | 0.399 | 0.742 | 0.773 | 0.569 | 0.668 | 0.174 | 0.206 | 0.223 | 0.185 | 0.167 | 0.177
HOP-62 | 0.66 | 0.705 | 0.462 | 0.254 | 0.193 | 0.427 | 0.31 | 0.389 | 0.115 | 0.103 | 0.802 | 0.882 | 0.521 | 0.696 | 0.523 | 0.486 | 0.634 | 0.284 | 0.329 | 0.24
LC-2-ad | 0.68 | 0.572 | 0.563 | 0.29 | 0.262 | 0.255 | 0.368 | 0.292 | 0.173 | 0.106 | 0.81 | 0.839 | 0.473 | 0.42 | 0.25 | 0.762 | 0.882 | 0.853 | 0.741 | 0.571
LCLC-97TM1 | 0.519 | 0.635 | 0.51 | 0.269 | 0.187 | 0.141 | 0.119 | 0.141 | 0.0993 | 0.0953 | 0.532 | 0.517 | 0.403 | 0.423 | 0.116 | 0.226 | 0.323 | 0.173 | 0.15 | 0.099
LCLC-103H | 0.849 | 0.826 | 0.747 | 0.496 | 0.333 | 0.638 | 0.573 | 0.54 | 0.34 | 0.255 | 0.515 | 0.516 | 0.392 | 0.55 | 0.424 | 0.756 | 0.787 | 0.597 | 0.742 | 0.608
LK-2 | 0.172 | 0.15 | 0.185 | 0.161 | 0.169 | 0.517 | 0.489 | 0.437 | 0.287 | 0.278 | 0.248 | 0.214 | 0.185 | 0.194 | 0.158 | 0.395 | 0.659 | 0.255 | 0.319 | 0.2
LOU-NH91 | 0.307 | 0.315 | 0.307 | 0.282 | 0.298 | 0.53 | 0.493 | 0.432 | 0.392 | 0.325 | 0.723 | 0.794 | 0.493 | 0.71 | 0.612 | 0.784 | 0.836 | 0.67 | 0.656 | 0.482
LU99A | 0.297 | 0.283 | 0.256 | 0.172 | 0.162 | 0.249 | 0.233 | 0.191 | 0.152 | 0.137 | 0.307 | 0.343 | 0.242 | 0.308 | 0.228 | 0.424 | 0.351 | 0.17 | 0.175 | 0.117
LXF-289 | 0.568 | 0.472 | 0.49 | 0.133 | 0.093 | 0.713 | 0.799 | 0.685 | 0.358 | 0.15 | 0.783 | 0.784 | 0.67 | 0.71 | 0.431 | 1.07 | 1.1 | 1.23 | 0.892 | 0.4
NCI-H23 | 0.228 | 0.2 | 0.211 | 0.176 | 0.216 | 0.262 | 0.348 | 0.263 | 0.169 | 0.153 | 0.754 | 0.609 | 0.406 | 0.542 | 0.207 | 0.246 | 0.307 | 0.187 | 0.195 | 0.172
NCI-H322M | 0.781 | 0.783 | 0.709 | 0.442 | 0.42 | 0.49 | 0.493 | 0.491 | 0.4 | 0.421 | 0.565 | 0.607 | 0.509 | 0.468 | 0.389 | 0.473 | 0.562 | 0.47 | 0.502 | 0.473
NCI-H358 | 0.307 | 0.251 | 0.27 | 0.23 | 0.283 | 0.349 | 0.355 | 0.34 | 0.233 | 0.228 | 0.711 | 0.757 | 0.366 | 0.136 | 0.0875 | 0.512 | 0.527 | 0.332 | 0.288 | 0.266

— the supplement of paper PMC10307832
